The text below walks through data of patent US8802082B2, “Rhodamine derivatives for photodynamic diagnosis and treatment” (Université de Montreal, priority 1999, dated 2014).

The subject of series [1] is normal mouse long term culture of bone marrow and hematopoietic colonies. Briefly: Phototoxicity against hematopoietic progenitor cell cultures (long term culture of bone marrow, semi-solid colony assays). The class given is cell-based. From the text: However, as reported for rhodamine 123, the LTC (Long Term Culture) establishment is more sensitive to the dyes but the number of viable committed precursor and stem cells remains unaffected. […] This is in agreement with results obtained previously in other laboratories using rhodamine 123.

Series [2] deals with K-562 cell line. Put plainly: In vitro phototoxicity, cell viability in the K-562 cell line procedure (argon ion laser 514.5 nm). Type of series: cell-based. As for the experimental part:
To ascertain the photochemotherapeutic potential of 4, 5-dibromorhodamine 110 n-butyl ester hydrobromide (DBBE), in vitro phototoxicity was evaluated in the K-562 cell line procedure described. The cells were incubated with increasing concentrations of DBBE and the cell viability was measured at different time points following photodynamic therapy.
The photo toxicity in vitro of rhodamine B n-butyl ester (RBBE) was evaluated in the K-562 cell line procedure, in order to assess its photochemotherapeutic potential. Comparison was made to the induced phototoxicity of rhodamine 123 (RH123) and of rhodamine nB-butyl ester hydrochloride. Cell viability was evaluated 2 and 20 hours after photodynamic therapy. […] Rhodamine 123 has no effect on cell viability, even at exposures of 5 J/cm^2. Phototoxicity of 4,5-dibromorhodamine 110 n-butyl ester hydrobromide and rhodamine B n-butyl ester hydrochloride were only assessed against the cell line K562. However, we anticipate that their activity will be similar against T cells.

For `CCCCOC(=O)c1ccccc1-c1c2ccc(=NCC)cc-2oc2cc(N(CC)CC)ccc12.Cl` [RBBE, Rhodamine B n-butyl ester (2-(6-diethyl amino-3-ethyl imino-3H-xanthen-9-yl)-benzoic acid) n-butyl diester hydrochloride], the “establishment of normal mouse long term culture of bone marrow and formation of hematopoietic colonies in semi-solid assays after photodynamic therapy” value (“establishment” below) in series [1] is “minimally impaired”. For the same compound, the “cell viability of K562 cells after photodynamic therapy” value in series [2] (10 µg/ml, 5 J/cm^2 argon ion laser 514.5 nm, less than 20 hours after irradiation) is “significantly suppress”.
`Br.CCCCOC(=O)c1ccccc1-c1c2ccc(=N)c(Br)c-2oc2c(Br)c(N)ccc12` [DBBE, 4,5-dibromorhodamine 110 (2-(4,5-dibromo-6-amino-3-imino-3H-xanthen-9-yl)-benzoic acid) n-butyl ester hydrobromide]: the “establishment” value in series [1] is listed as “minimally impaired”. Besides, in series [2] (10 μg/ml, 0.5 J/cm^2 at 514.5 nm, less than 24 hours after irradiation), the “cell viability after photodynamic therapy” value is on record as “completely suppress”.
As for `COC(=O)c1ccccc1-c1c2ccc(=N)cc-2oc2cc(N)ccc12.Cl` [Rhodamine 123, Rhodamine 123 (2-(6-amino-3-imino-3H-xanthen-9-yl)benzoic acid methyl ester) hydrochloride, reference compound], in series [1], the “establishment” value is reported as “minimally impaired”. Further, the “effect on cell viability” value in series [2] (even at exposures of 5 J/cm^2) is on record as “no effect”.
